Data: PMC7970304, “The Effects of Apelin and Elabela Ligands on Apelin Receptor Distinct Signaling Profiles” (Frontiers in Pharmacology, 2021)
No end group written: not given here.

Key:
μ opioid receptor (MOR) = details: ref Markham, 2020; cited from earlier work
Source text: GPCR ligands were traditionally thought to act equally on all the downstream signaling pathways of the GPCRs, including the multiple signaling pathways mediated by G proteins and β-arrestin.

Apelin receptor (APJ) [1] = target: Apelin receptor (APJ) (UniProt P35414); test: radioligand binding; competition binding: HEK-293/APJ membrane preparation 20 μg/well, 0.1 nM [125I]-apelin-13, test peptides in 5-fold dilutions starting at 10 µM; 50 mM HEPES pH 7.4, 5 mM MgCl2, 1 mM CaCl2, 0.2% BSA; 30°C, 2 h; Ki calculated from IC50
APJ-Venus = APJ-Venus (UniProt P35414)
Apelin receptor (APJ) [2] = target: Apelin receptor (APJ) (UniProt P35414)
[3] = target: APJ-Renilla luciferase (Rluc) (UniProt P35414)
APJ [4] = test system: APJ; set-up: method as in Nyimanu et al., 2019; details: ref Nyimanu et al., 2019; cited from earlier work
APJ [5] = details: cited from earlier work
Source text: (§1) Elabela (also known as apela or toddler), which has little sequence homology with Apelin, has recently been identified as the second endogenous APJ ligand. […] Elabela is highly expressed during embryogenesis and in adult kidney. Elabela is also derived from a precursor of 54 amino acids.

[6] = test system: pulmonary arterial hypertension (PAH); set-up: method as in Yang et al., 2017; details: exogenous peptide; ref Yang et al., 2017; cited from earlier work
APJ [7] = details: ERK1/2-dependent; ref Perjés et al., 2016; cited from earlier work
Source text: as §1, with “acids. Its 13 C-terminal amino acids are highly conserved among all spe ...” for “acids.”

APJ (Apelin receptor) = target: T1, APJ (Apelin receptor) (Homo sapiens, UniProt P35414); test: Radioligand competition binding assay, [125I]-apelin-13, HEK-293/APJ membranes; set-up: APJ membrane preparations were obtained from transiently transfected HEK293 cells; host or cells: HEK293 cells, transiently transfected; membranes prepared
T1 sequence (P35414 1-380): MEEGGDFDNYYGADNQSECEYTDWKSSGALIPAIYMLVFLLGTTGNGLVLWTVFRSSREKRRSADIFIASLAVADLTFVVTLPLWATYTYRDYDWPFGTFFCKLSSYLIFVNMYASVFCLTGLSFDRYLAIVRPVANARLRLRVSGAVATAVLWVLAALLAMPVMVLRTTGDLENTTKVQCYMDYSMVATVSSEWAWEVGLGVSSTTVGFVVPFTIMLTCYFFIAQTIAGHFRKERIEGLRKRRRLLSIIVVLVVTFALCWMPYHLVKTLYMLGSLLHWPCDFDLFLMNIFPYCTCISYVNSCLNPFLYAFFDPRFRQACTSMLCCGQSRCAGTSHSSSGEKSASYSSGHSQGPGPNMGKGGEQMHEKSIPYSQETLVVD
Procedure: APJ membrane preparations were obtained from transiently transfected HEK293 cells. HEK293 cells were cultured in complete DMEM (DMEM plus 10% FBS) for 24 h, until they reached at least 70% confluence. Transfection reagent containing 20 μg of the APJ expression plasmid was added, and the cells were incubated for another 24 h. The cells were then harvested into 25 ml homogenization buffer (HB) [250 mM sucrose and 25 mM HEPES (pH 7.3); adjusted to pH 7.5 at 4°C and then filtered] supplemented with 250 μL phenylmethylsulfonyl fluoride (PMSF), homogenized using an IKA T25 Ultra Turrax (24,000 rpm), and centrifuged at 6,025 rpm for 15 min at 4°C. […]
The binding reaction was stopped by rapid filtration through polyethyleneimine (PEI)-coated GF/B plates using a cell harvester, and the plates were washed three times with ice-cold wash buffer [50 mM HEPES (pH 7.4), 500 mM NaCl, and 0.1% BSA; filtered and stored at 4°C]. The filtration plates were dried at 37°C for 2 h; 50 μL scintillation cocktail (Perkin Elmer, Wellesley, MA, United States), was added to each well; and the radioactivity was measured using a Perkin Elmer 1450 MicroBeta TriLux Microplate Scintillation and Luminescence Counter.
The binding reaction was stopped, the plates were washed and dried, the scintillation cocktail was added, and the radioactivity was measured as described above.

COc1ccsc1CNCC[C@@]1(c2ccccn2)CCOC2(CCCC2)C1 [oliceridine]
signaling bias at opioid receptor (in words) (μ opioid receptor (MOR)): selective for G protein pathway, and the effect of β - arrestin recruitment is low

Apelin-17 (peptide)
IC50 (Apelin receptor (APJ) [1]): 5.2 nM
LogEC50 of the ligand-induced interaction of APJ with β-arrestin 1 (BRET between APJ-Venus and β-arrestin 1-Rluc, HEK293 cells) (APJ-Venus): -7.9
LogEC50 of the ligand-induced interaction of APJ with β-arrestin 2 (BRET between APJ-Venus and β-arrestin2-Rluc, HEK293 cells) (APJ-Venus): -8.33
LogEC50 of the ligand-induced interaction between β-arrestin 1 and AP2 (BRET between β-arrestin 1-Rluc and β2-adaptin-EYFP in HEK293 cells co-transfected with APJ, 30 min) (Apelin receptor (APJ) [2]): -8.48
LogEC50 of the ligand-induced interaction between β-arrestin 2 and AP2 (BRET between β-arrestin 2-Rluc and β2-adaptin-EYFP in HEK293 cells co-transfected with APJ, 30 min) (Apelin receptor (APJ) [2]): -7.17
LogEC50 of the ligand-induced recruitment of GRK2 to APJ (BRET between APJ-Rluc and GRK2-GFP2, HEK293 cells) [3]: -8.19
LogEC50 of the ligand-induced recruitment of GRK5 to APJ (BRET between APJ-Rluc and GRK5-GFP2, HEK293 cells) [3]: -8.58

Apelin-36-[L28A]: G protein biased APJ agonist (LVQPRGSRNGPGPWQGGRRKFRRQRPRASHKGPMPF; Apelin-36; UniProt Q9ULZ1 42-77, looked up, variant L28A)
binding to APJ (in words) (APJ [4]): nanomolar affinities
signaling bias (in words) (APJ [5]; ref Nyimanu et al., 2019): G protein biased APJ agonists

Elabela
effect in PAH in rats (in words) [6]: reduce the severity of cardiopulmonary remodeling and function in PAH in rats
cardiac contractility (in words) (APJ [7]): increase cardiac contractility in an ERK1/2-dependent manner
APJ signaling (in words) (APJ [5]; ref Peverelli et al., 2014): inhibit cyclic AMP (cAMP) production, activate the extracellular signal-regulated kinases (ERK1/2), and mobilize intracellular calcium through APJ internalization

LVQPRGSRNGPGPWQGGRRKFRRQRPRLSHKGPMPF [Apelin-36]
Ki (APJ (Apelin receptor)): 1.74 nM
